The data set can be described thus: clinical. The note with it: for Fa at 4 h / Fa at 8 h / Percent absorption: human, in vivo, topical or ocular; for Fa at 4 h / Fa at 8 h: Percent absorption. The method, then: An experiment was carried out on 7 subjects who were healthy male adults, 25-39 years old and weighing 50-63 kg each, as mentioned hereinbelow.
The plasters and adhesive tapes so attached to the skin sites were peeled 0 hour, 4 hours and 8 hours after the application and then inserted into 15 ml test tubes, respectively, after which the test tubes were each incorporated with 5 ml of acetone, shaken lightly and allowed to stand overnight at room temperature. […] After the distillation-off of an excess of the diazomethane and ether, the residue so methylated was dissolved in 1 ml of a solution of the internal reference substance in acetone and meansured for absorbability and amount absorbed by means of GC-MF under the conditions as shown in Table 10.
The absorbency and amount absorbed were calculated from the following formulae: [formula]

The mark [1] stands for this setting: 1% plaster, […] 1.4 cm, 4 hr, mean ± S.E.
The mark [2] stands for this setting: 1% plaster, […] 1.4 cm, 8 hr, mean ± S.E.
Where [3] appears, read: 3% plaster, […] 1.4 cm, 4 hr, mean ± S.E.
[4] abbreviates: 3% plaster, […] 1.4 cm, 8 hr, mean ± S.E.

For `COc1ccc2c(c1)c(CC(=O)O)c(C)n2C(=O)c1ccc(Cl)cc1` [Indomethacin], the Amount absorption by setting is: under setting [1], 2.30 µg; under setting [2], 4.92 ± 1.16 µg; under setting [3], 16.67 µg; under setting [4], 20.21 ± 2.13 µg. Also, the Fa at 4 h runs as follows: under setting [1], 1.27%; under setting [3], 3.52%. Further, the Fa at 8 h under setting [2] is 2.71 ± 0.64% and the Fa at 8 h under setting [4] was found to be 4.28 ± 0.45%.
`CC(C(=O)O)c1ccc(-c2ccccc2)c(F)c1` (stereo not shown) [Flurbiprofen] had a Fa at 4 h of 5.53% and a Fa at 8 h of 6.54 ± 0.99%. The molecule further displayed an Amount absorption under setting [1] of 9.05 µg. The molecule further displayed an Amount absorption under setting [2] of 10.70 ± 1.61 µg. In addition, the Amount absorption under setting [3] amounted to 41.19 µg. This molecule also returned an Amount absorption under setting [4] of 49.56 ± 6.92 µg. The same molecule displayed a Percent absorption (4 h) of 6.98%. Where the note is “8 h”, this molecule yielded a Percent absorption of 8.40 ± 1.17%.

Source of the values: patent publication US4455146A, “Novel plasters” (Hisamitsu Pharmaceutical Co., Ltd., priority 1979, dated 1984).
